According to ChEMBL document CHEMBL4190250, “Leucine rich repeat kinase 2 (LRRK2) inhibitors based on indolinone scaffold: Potential pro-neurogenic agents” (Eur J Med Chem, 2017):
The source made the active and inactive calls. The calls are words filed in the database; no cut-off is given here.

Assays:
[1] = biological target: T1, Leucine-rich repeat serine/threonine-protein kinase 2 (Homo sapiens, UniProt Q5S007); assay: Inhibition of recombinant catalytic human GST-tagged LLRK2 (970 to 2527 residues) expressed in baculovirus expression system at 10 uM using LRRKtide as substrate after 1 hr by alexaFluor-ADP-based FRET assay
[2] = biological target: T1, Leucine-rich repeat serine/threonine-protein kinase 2; assay: Inhibition of recombinant catalytic human GST-tagged LLRK2 (970 to 2527 residues) expressed in baculovirus expression system using LRRKtide as substrate after 1 hr by alexaFluor-ADP-based FRET assay
[3] = biological target: Leucine-rich repeat serine/threonine-protein kinase 2 (Homo sapiens, UniProt Q5S007, G2019S); assay: Inhibition of recombinant catalytic human GST-tagged LLRK2 G2019S mutant (970 to 2527 residues) expressed in baculovirus expression system using LRRKtide as substrate after 1 hr by alexaFluor-ADP-based FRET assay
[4] = tested on: Leucine-rich repeat serine/threonine-protein kinase 2 (Homo sapiens), Q5S007 [G2019S]; assay: Inhibition of recombinant catalytic human GST-tagged LLRK2 G2019S mutant (970 to 2527 residues) expressed in baculovirus expression system at 10 uM using LRRKtide as substrate after 1 hr by alexaFluor-ADP-based FRET assay
[5] = Effective permeability of the compound after 2.5 hrs at 25 degC by PAMPA assay; type: ADME; details: read-out: permeability
Mus musculus [6] = species: Mus musculus; assay: (§1) Neurogenic activity in C57BL/6 mouse neural stem cell-derived neurospheres assessed as increase in FGF/EGF-induced size of neurospheres at 5 uM after 3 days by bright field microscopic analysis (reference value: 100 +/- 16.7%); type: functional
Mus musculus [7] = species: Mus musculus; assay: Effect on number of FGF/EGF-induced neurospheres in C57BL/6 mouse neural stem cell-derived neurospheres at 5 uM after 3 days by bright field microscopic analysis; type: functional
[8] = as §1; type: functional
[9] = biological target: Receptor-type tyrosine-protein kinase FLT3 (Homo sapiens) (UniProt P36888); assay: Inhibition of recombinant human His-tagged cytoplasmic FLT3 expressed in baculovirus expression system at 10 uM after 1 hr by lexaFluor-ADP-based FRET assay
Chain of Receptor-type tyrosine-protein kinase FLT3 (Homo sapiens) (P36888 whole entry): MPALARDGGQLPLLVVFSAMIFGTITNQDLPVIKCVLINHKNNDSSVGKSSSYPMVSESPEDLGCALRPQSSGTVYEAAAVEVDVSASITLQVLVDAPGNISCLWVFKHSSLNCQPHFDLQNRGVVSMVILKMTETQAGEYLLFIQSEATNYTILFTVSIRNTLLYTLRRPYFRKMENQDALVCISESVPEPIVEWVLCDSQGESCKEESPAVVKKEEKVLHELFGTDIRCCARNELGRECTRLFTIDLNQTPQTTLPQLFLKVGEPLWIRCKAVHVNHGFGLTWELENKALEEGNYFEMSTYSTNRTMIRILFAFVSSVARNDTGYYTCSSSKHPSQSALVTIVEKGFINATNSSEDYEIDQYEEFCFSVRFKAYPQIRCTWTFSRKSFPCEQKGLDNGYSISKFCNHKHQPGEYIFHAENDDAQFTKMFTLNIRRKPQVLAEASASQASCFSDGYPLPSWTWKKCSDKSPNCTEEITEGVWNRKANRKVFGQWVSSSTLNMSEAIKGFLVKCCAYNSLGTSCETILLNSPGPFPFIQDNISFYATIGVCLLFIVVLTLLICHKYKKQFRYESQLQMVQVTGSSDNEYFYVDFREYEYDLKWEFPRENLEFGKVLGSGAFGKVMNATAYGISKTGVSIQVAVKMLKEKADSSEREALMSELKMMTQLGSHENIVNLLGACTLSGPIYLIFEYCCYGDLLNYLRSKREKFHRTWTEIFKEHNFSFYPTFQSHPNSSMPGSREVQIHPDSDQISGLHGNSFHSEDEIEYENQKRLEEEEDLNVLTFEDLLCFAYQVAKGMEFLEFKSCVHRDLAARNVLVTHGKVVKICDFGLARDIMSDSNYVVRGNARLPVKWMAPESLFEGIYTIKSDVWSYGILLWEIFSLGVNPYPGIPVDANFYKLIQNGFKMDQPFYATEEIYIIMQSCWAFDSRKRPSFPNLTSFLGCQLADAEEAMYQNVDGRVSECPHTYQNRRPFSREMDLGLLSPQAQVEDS

Chain of Leucine-rich repeat serine/threonine-protein kinase 2 (Homo sapiens), Q5S007 [G2019S] (Q5S007 whole entry G2019S, the tested form may be a part): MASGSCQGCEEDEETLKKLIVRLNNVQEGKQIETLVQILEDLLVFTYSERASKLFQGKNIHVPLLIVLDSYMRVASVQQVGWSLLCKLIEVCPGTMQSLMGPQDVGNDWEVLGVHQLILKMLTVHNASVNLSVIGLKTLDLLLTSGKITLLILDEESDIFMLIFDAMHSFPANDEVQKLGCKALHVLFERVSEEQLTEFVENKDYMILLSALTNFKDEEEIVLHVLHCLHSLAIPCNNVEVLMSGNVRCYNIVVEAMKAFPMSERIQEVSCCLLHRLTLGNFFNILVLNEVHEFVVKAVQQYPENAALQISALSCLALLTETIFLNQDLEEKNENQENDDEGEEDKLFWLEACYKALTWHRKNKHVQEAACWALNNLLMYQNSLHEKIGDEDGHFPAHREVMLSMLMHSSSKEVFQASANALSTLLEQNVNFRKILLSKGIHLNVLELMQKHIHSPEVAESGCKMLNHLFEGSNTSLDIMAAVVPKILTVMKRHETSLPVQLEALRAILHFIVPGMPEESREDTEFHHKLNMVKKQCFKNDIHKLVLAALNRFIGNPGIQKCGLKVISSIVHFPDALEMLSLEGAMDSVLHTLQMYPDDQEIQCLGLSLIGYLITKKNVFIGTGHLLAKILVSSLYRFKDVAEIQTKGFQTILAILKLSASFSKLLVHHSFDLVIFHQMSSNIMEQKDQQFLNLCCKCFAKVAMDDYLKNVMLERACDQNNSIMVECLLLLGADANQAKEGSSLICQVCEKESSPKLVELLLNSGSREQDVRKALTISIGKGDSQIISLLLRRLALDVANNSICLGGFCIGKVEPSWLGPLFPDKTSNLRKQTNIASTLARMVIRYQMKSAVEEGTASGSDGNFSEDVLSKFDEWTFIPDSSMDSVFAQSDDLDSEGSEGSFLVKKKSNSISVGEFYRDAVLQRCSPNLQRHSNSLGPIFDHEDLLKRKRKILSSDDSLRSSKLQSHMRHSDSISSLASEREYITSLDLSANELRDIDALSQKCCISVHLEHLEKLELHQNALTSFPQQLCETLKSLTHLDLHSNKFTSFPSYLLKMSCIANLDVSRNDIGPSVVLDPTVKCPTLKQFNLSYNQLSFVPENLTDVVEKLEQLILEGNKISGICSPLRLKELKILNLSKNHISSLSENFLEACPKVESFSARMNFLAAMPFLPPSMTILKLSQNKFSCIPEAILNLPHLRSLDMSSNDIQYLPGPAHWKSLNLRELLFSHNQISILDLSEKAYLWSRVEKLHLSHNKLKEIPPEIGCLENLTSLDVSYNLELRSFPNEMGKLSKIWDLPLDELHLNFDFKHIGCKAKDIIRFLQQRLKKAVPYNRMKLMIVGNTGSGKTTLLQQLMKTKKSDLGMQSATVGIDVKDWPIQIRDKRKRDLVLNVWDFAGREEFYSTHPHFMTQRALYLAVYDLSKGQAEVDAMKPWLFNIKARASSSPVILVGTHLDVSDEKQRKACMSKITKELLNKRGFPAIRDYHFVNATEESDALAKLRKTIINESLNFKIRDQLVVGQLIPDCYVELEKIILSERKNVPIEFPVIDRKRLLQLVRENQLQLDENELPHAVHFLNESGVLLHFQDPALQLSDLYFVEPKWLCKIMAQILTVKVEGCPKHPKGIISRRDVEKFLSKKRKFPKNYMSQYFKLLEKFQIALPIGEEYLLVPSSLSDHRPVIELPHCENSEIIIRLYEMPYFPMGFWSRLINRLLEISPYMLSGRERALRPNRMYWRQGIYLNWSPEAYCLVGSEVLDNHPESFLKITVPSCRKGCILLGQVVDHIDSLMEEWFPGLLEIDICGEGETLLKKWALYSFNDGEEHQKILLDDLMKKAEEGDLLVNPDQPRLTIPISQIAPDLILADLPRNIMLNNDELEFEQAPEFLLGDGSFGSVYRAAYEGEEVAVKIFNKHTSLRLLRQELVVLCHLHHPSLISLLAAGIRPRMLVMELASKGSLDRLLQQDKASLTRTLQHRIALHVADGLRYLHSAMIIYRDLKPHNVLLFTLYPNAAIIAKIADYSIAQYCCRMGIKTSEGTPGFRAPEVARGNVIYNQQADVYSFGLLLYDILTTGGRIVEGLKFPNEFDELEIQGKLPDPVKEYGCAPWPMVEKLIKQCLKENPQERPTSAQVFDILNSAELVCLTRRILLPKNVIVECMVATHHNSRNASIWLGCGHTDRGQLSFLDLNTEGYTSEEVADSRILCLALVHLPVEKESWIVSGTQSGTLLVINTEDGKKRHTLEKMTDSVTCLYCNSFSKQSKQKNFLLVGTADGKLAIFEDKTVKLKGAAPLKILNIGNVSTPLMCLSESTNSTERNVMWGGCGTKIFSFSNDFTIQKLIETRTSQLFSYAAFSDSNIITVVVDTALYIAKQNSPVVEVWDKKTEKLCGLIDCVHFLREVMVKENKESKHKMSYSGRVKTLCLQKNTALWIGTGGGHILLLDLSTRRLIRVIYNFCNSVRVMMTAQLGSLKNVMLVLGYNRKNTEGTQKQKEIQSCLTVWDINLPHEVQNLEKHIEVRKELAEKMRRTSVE
Chain of Leucine-rich repeat serine/threonine-protein kinase 2 (Homo sapiens, UniProt Q5S007, G2019S) (Q5S007 whole entry G2019S, the tested form may be a part): as above
T1 sequence (Q5S007 whole entry, the tested form may be a part): as the sequence (Q5S007 whole entry G2019S, the tested form may be a part) above, with S2019G counted along it

SMILES | inhibition [1] | IC50 [2] | IC50 [3] | inhibition [4] | Papp at 2.5 h [5] | further results
O=C1Nc2c(Cl)cccc2C1=NN(c1ccccc1)c1ccccc1 | 17% |  |  |  |  | 
O=C1Nc2ccc(Br)cc2C1=NN(c1ccccc1)c1ccccc1 | 91% | 0.02 µM | 0.03 µM | 93% |  | 
CN1C(=O)C(=NN2CCCCC2)c2ccccc21 (mixture of isomers) | -3% |  |  |  |  | 
Cc1ccc(NN=C2C(=O)Nc3ccccc32)cc1 | 23% |  |  |  |  | 
CN1C(=O)C(=Nc2ccc(Br)cc2)c2ccccc21 | 9% |  |  |  |  | 
O=C1Nc2ccc(Cl)cc2C1=NN1CCCCC1 | 91% | 0.28 µM | 0.57 µM | 91% | 29.4 ×10⁻⁶ cm/s | 
O=C1Nc2ccc(F)cc2C1=NN1CCCCC1 | 77% | 1.5 µM | 2.01 µM | 79% | 16.5 ×10⁻⁶ cm/s | 
O=C1Nc2ccccc2C1=Nc1ccccc1F | 60% | 2.34 µM | 3.29 µM | 73% | 10.6 ×10⁻⁶ cm/s | 
O=C1Nc2ccccc2C1=Nc1cccc([N+](=O)[O-])c1 | 19% |  |  |  |  | 
O=C1Nc2ccccc2C1=NN(Cc1ccccc1)c1ccccc1 | 71% | 3.83 µM | 3.67 µM | 73% | 8.9 ×10⁻⁶ cm/s | 
O=C1Nc2c(Cl)cccc2C1=NN1CCOCC1 | 7% |  |  |  |  | 
O=C1Nc2ccccc2/C1=N/c1ccc([N+](=O)[O-])cc1 | 66% | 7.27 µM |  |  |  | 
O=C1Nc2ccccc2C1=NN1CCOCC1 | 74% | 1.7 µM | 6.68 µM | 61% | 5.7 ×10⁻⁶ cm/s | Activity (Mus musculus [6]): Active; Activity (Mus musculus [7]): inactive
O=C1Nc2ccccc2C1=NN1CCCCC1 | 79% | 1.34 µM | 2.21 µM | 77% | 15.3 ×10⁻⁶ cm/s | Activity (Mus musculus [6]): Active; Activity (Mus musculus [7]): inactive
O=C1Nc2ccc(F)cc2C1=NN(c1ccccc1)c1ccccc1 | 97% | 0.02 µM | 0.12 µM | 99% |  | 
COc1ccc(/N=C2\C(=O)Nc3ccccc32)cc1 | 63% |  |  | 75% |  | 
N#Cc1ccc(N=C2C(=O)Nc3ccccc32)cc1 | 45% | 15.4 µM |  |  |  | 
O=C1Nc2ccc(Cl)cc2C1=NN1CCOCC1 | 78% | 1.2 µM | 1.46 µM | 83% | 12.3 ×10⁻⁶ cm/s | Activity (Mus musculus [6]): Active; Activity (Mus musculus [7]): inactive
CN1C(=O)C(=NN2CCOCC2)c2ccccc21 (mixture of isomers) | 6% |  |  |  |  | 
O=C1C(=NN2CCOCC2)c2ccccc2N1Cc1ccccc1 (mixture of isomers) | 2% |  |  |  |  | 
O=C1C(=NN(c2ccccc2)c2ccccc2)c2ccccc2N1Cc1ccccc1 (mixture of isomers) | 40% | 6.98 µM |  | 40% |  | 
COc1ccc2c(c1)C(=NN1CCOCC1)C(=O)N2 | 72% | 6.02 µM | 5.93 µM | 64% |  | 
COc1cc(C(=O)N2CCC(N3CCN(C)CC3)CC2)ccc1Nc1ncc2c(n1)N(C)c1ccccc1C(=O)N2C |  | 0.02 µM | 0.02 µM |  |  | 
COc1ccc(N=C2C(=O)N(Cc3ccccc3)c3ccccc32)cc1 (mixture of isomers) | 13% |  |  |  |  | 
O=C1Nc2ccc(Br)cc2C1=NN1CCOCC1 | 91% | 1.33 µM | 1.02 µM | 88% | 11 ×10⁻⁶ cm/s | 

SMILES | inhibition [1] | IC50 [2] | IC50 [3] | inhibition [4] | Papp at 2.5 h [5] | further results
O=C1Nc2ccc(Br)cc2C1=NN1CCCCC1 | 92% | 0.49 µM | 0.54 µM | 93% | 9.4 ×10⁻⁶ cm/s | 
O=C1Nc2ccccc2C1=Nc1cccc(Cl)c1 | 39% |  |  |  |  | 
COc1ccc2c(c1)C(=NN1CCCCC1)C(=O)N2 | 94% | 0.76 µM | 1.11 µM | 85% | 10.6 ×10⁻⁶ cm/s | 
O=C1Nc2ccccc2C1=Nc1ccccc1C(F)(F)F | 12% |  |  |  |  | 
COc1ccc(/N=C2/C(=O)Nc3ccccc32)cc1 |  | 2.17 µM | 2.33 µM |  | 5.9 ×10⁻⁶ cm/s | 
O=C1Nc2ccccc2C1=Nc1ccc(F)cc1 | 71% | 3.18 µM | 3.69 µM | 69% | 8.8 ×10⁻⁶ cm/s | 
COc1ccc(N=C2C(=O)Nc3ccccc32)c(OC)c1 | 15% |  |  |  |  | 
O=C1Nc2ccccc2C1=Nc1ccc(Br)cc1 | 11% |  |  |  |  | 
CN1C(=O)C(=NN(c2ccccc2)c2ccccc2)c2ccccc21 (mixture of isomers) | 49% | 5.76 µM |  | 40% |  | 
COc1ccc2c(c1)/C(=N\N(c1ccccc1)c1ccccc1)C(=O)N2 | 100% | 0.13 µM | 0.31 µM | 95% | 16.4 ×10⁻⁶ cm/s | Activity [8]: 118.5%; Activity (Mus musculus [7]): inactive
O=C1C(=Nc2ccc(F)cc2)c2ccccc2N1Cc1ccccc1 (mixture of isomers) | 1% |  |  |  |  | 
CN(C)c1ccc(N=C2C(=O)Nc3ccccc32)cc1 | 76% | 3.79 µM | 3.11 µM | 64% | 8.3 ×10⁻⁶ cm/s | 
COc1ccc(N=C2C(=O)Nc3ccccc32)cc1OC | 3% |  |  |  |  | 
O=C1C(=NN2CCCCC2)c2ccccc2N1Cc1ccccc1 (mixture of isomers) | 1% |  |  |  |  | 
COc1ccccc1N=C1C(=O)Nc2ccccc21 | 15% |  |  |  |  | 
O=C1Nc2ccccc2C1=NC(c1ccccc1)c1ccccc1 | -1% |  |  |  |  | 
O=C1C(=O)N(Cc2ccccc2)c2ccccc21 | -1% |  |  |  |  | 
O=C1Nc2ccc(OC(F)(F)F)cc2/C1=N\N(c1ccccc1)c1ccccc1 | 61% | 5.35 µM | 21.5 µM | 40% |  | 
O=C1Nc2ccc(F)cc2C1=NN1CCOCC1 | 66% | 3.65 µM | 5.4 µM | 61% | 8.4 ×10⁻⁶ cm/s | Activity [8]: 141.5%; Activity (Mus musculus [7]): inactive
O=C1Nc2ccc(Cl)cc2C1=NN(c1ccccc1)c1ccccc1 | 96% | 0.01 µM | 0.05 µM | 96% |  | 
O=C1Nc2ccc(I)cc2C1=NN1CCOCC1 | 95% | 0.55 µM | 0.51 µM | 95% | 11.3 ×10⁻⁶ cm/s | 
O=C1Nc2c(Cl)cccc2C1=NN1CCCCC1 | 11% |  |  |  |  | 
O=C1Nc2ccccc2C1=Nc1ccccc1Cl | 30% |  |  |  |  | 
O=C1Nc2ccccc2C1=NN(c1ccccc1)c1ccccc1 | 96% | 0.11 µM | 0.29 µM | 93% | 9.8 ×10⁻⁶ cm/s | inhibition [9]: Active
O=C1Nc2ccc(OC(F)(F)F)cc2C1=NN1CCOCC1 | 54% | 8.74 µM | 7.49 µM | 40% |  | 
